ChEMBL document CHEMBL4813981, “Synthesis and in vitro antibacterial activity of new aminothiazole-oximepiperidone cephalosporins” (2021)
Values after ≈ are worked out from the molar mass of the structure shown.

Columns and labels:
Enterobacter cloacae [1] = test: Ratio of MBC to MIC for Enterobacter cloacae 17-3 assessed as reduction in bacterial growth in the presence of Avibactam; assay type: functional
Enterobacter cloacae [2] = test: Ratio of MBC to MIC for Enterobacter cloacae 17-9 assessed as reduction in bacterial growth in the presence of Avibactam; assay type: functional
Klebsiella aerogenes [3] = test: Bactericidal activity against Enterobacter aerogenes 15-4 assessed as reduction in bacterial growth in the presence of avibactam; assay type: functional
Pseudomonas aeruginosa [4] = test: Antibacterial activity against Pseudomonas aeruginosa ATCC 27853 assessed as reduction in bacterial growth in the presence of Avibactam; assay type: functional
Escherichia coli [5] = test: Ratio of MBC to MIC for ESBLs negative carbapenem-negative Escherichia coli 17-9 assessed as reduction in bacterial growth in the presence of Avibactam; assay type: functional
Klebsiella pneumoniae [6] = test: Ratio of MBC to MIC for Klebsiella pneumoniae ATCC BAA-1705 assessed as reduction in bacterial growth in the presence of Avibactam; assay type: functional
Klebsiella pneumoniae [7] = test: Bactericidal activity against Carbapenem- resistant Klebsiella pneumoniae KR 15-8 assessed as reduction in bacterial growth in the presence of avibactam; assay type: functional
Pseudomonas aeruginosa [8] = test: Antibacterial activity against Carbapenem- sensitive Pseudomonas aeruginosa 17-7 assessed as reduction in bacterial growth in the presence of Avibactam; assay type: functional
Klebsiella aerogenes [9] = test: Ratio of MBC to MIC for Enterobacter aerogenes 17-3 assessed as reduction in bacterial growth; assay type: functional
Klebsiella pneumoniae [10] = test: Antibacterial activity against ESBLs negative Carbapenem-sensitive Klebsiella pneumoniae 17-16 assessed as reduction in bacterial growth in the presence of Avibactam; assay type: functional
Enterobacter cloacae [11] = test: Bactericidal activity against Enterobacter cloacae 17-10 assessed as reduction in bacterial growth in the presence of avibactam; assay type: functional
Escherichia coli [12] = test: Antibacterial activity against ESBLs positive Carbapenem-sensitive Escherichia coli 17-12 assessed as reduction in bacterial growth in the presence of Avibactam; assay type: functional
Escherichia coli [13] = test: Antibacterial activity against Escherichia coli 15-5 overexpressing extended spectrum beta-lactamases assessed as reduction in bacterial growth in the presence of Avibactam; assay type: functional
Escherichia coli [14] = test: Antibacterial activity against ESBLs positive Carbapenem-sensitive Escherichia coli 17-11 assessed as reduction in bacterial growth in the presence of Avibactam; assay type: functional
Acinetobacter baumannii [15] = test: Antibacterial activity against Multidrug resistant Acinetobacter baumannii AR 15-3 assessed as reduction in bacterial growth; assay type: functional
Acinetobacter baumannii [16] = test: Bactericidal activity against Carbapenem- resistant Acinetobacter baumannii 17-6 assessed as reduction in bacterial growth; assay type: functional
Pseudomonas aeruginosa [17] = test: Ratio of MBC to MIC for carbapenem-sensitive Pseudomonas aeruginosa 17-26 assessed as reduction in bacterial growth in the presence of Avibactam; assay type: functional
Escherichia coli [18] = test: Ratio of MBC to MIC for ESBLs positive carbapenem-negative Escherichia coli 17-10 assessed as reduction in bacterial growth in the presence of Avibactam; assay type: functional
Acinetobacter baumannii [19] = test: Antibacterial activity against Carbapenem- resistant Acinetobacter baumannii 17-10 assessed as reduction in bacterial growth in the presence of Avibactam; assay type: functional
Klebsiella aerogenes [20] = test: Bactericidal activity against Enterobacter aerogenes 17-4 assessed as reduction in bacterial growth; assay type: functional
Acinetobacter baumannii [21] = test: Antibacterial activity against Multidrug resistant Acinetobacter baumannii AR 15-2 assessed as reduction in bacterial growth in the presence of Avibactam; assay type: functional
Klebsiella aerogenes [22] = test: Ratio of MBC to MIC for Enterobacter aerogenes 17-4 assessed as reduction in bacterial growth in the presence of Avibactam; assay type: functional
Klebsiella pneumoniae [23] = test: Ratio of MBC to MIC for ESBLs positive Carbapenem-sensitive Klebsiella pneumoniae 17-12 assessed as reduction in bacterial growth in the presence of Avibactam; assay type: functional
Pseudomonas aeruginosa [24] = test: Ratio of MBC to MIC for carbapenem-sensitive Pseudomonas aeruginosa 17-7 assessed as reduction in bacterial growth; assay type: functional
Klebsiella pneumoniae [25] = test: Bactericidal activity against ESBLs positive Carbapenem-sensitive Klebsiella pneumoniae 17-12 assessed as reduction in bacterial growth in the presence of avibactam; assay type: functional
Enterobacter cloacae [26] = test: Ratio of MBC to MIC for Enterobacter cloacae 17-8 assessed as reduction in bacterial growth in the presence of Avibactam; assay type: functional
Pseudomonas aeruginosa [27] = test: Bactericidal activity against Carbapenem- resistant Pseudomonas aeruginosa 17-5 assessed as reduction in bacterial growth in the presence of avibactam; assay type: functional
Acinetobacter baumannii [28] = test: Ratio of MBC to MIC for Carbapenem- resistant Acinetobacter baumannii 17-11 assessed as reduction in bacterial growth in the presence of Avibactam; assay type: functional
Klebsiella pneumoniae [29] = test: Antibacterial activity against Klebsiella pneumoniae ATCC BAA-1705 assessed as reduction in bacterial growth in the presence of Avibactam; assay type: functional
Klebsiella pneumoniae [30] = test: Ratio of MBC to MIC for ESBLs positive Carbapenem-sensitive Klebsiella pneumoniae 17-2 assessed as reduction in bacterial growth in the presence of Avibactam; assay type: functional
Pseudomonas aeruginosa [31] = test: Ratio of MBC to MIC for Pseudomonas aeruginosa ATCC 27853 assessed as reduction in bacterial growth in the presence of Avibactam; assay type: functional
Klebsiella pneumoniae [32] = test: Antibacterial activity against ESBLs positive Carbapenem-sensitive Klebsiella pneumoniae 17-7 assessed as reduction in bacterial growth in the presence of Avibactam; assay type: functional
Klebsiella aerogenes [33] = test: Antibacterial activity against Enterobacter aerogenes 17-3 assessed as reduction in bacterial growth in the presence of Avibactam; assay type: functional
Escherichia coli [34] = test: Ratio of MBC to MIC for ESBLs positive Carbapenem-sensitive Escherichia coli 17-10 assessed as reduction in bacterial growth; assay type: functional
Acinetobacter baumannii [35] = test: Bactericidal activity against Carbapenem- resistant Acinetobacter baumannii 17-6 assessed as reduction in bacterial growth in the presence of avibactam; assay type: functional
Klebsiella aerogenes [36] = test: Antibacterial activity against Enterobacter aerogenes 17-5 assessed as reduction in bacterial growth in the presence of Avibactam; assay type: functional
Pseudomonas aeruginosa [37] = test: Ratio of MBC to MIC for carbapenem-sensitive Pseudomonas aeruginosa 17-7 assessed as reduction in bacterial growth in the presence of Avibactam; assay type: functional
Escherichia coli [38] = test: Antibacterial activity against ESBLs positive Carbapenem-sensitive Escherichia coli 17-8 assessed as reduction in bacterial growth in the presence of Avibactam; assay type: functional
Escherichia coli [39] = test: Antibacterial activity against Escherichia coli ATCC 35218 assessed as reduction in bacterial growth; assay type: functional
Klebsiella pneumoniae [40] = test: Ratio of MBC to MIC for ESBLs negative Carbapenem-sensitive Klebsiella pneumoniae 17-17 assessed as reduction in bacterial growth in the presence of Avibactam; assay type: functional
Enterobacter cloacae [41] = test: Antibacterial activity against Enterobacter cloacae 17-6 assessed as reduction in bacterial growth; assay type: functional
Klebsiella pneumoniae [42] = test: Antibacterial activity against ESBLs positive Carbapenem-sensitive Klebsiella pneumoniae 17-12 assessed as reduction in bacterial growth in the presence of Avibactam; assay type: functional
Acinetobacter baumannii [43] = test: Antibacterial activity against Carbapenem- resistant Acinetobacter baumannii 17-5 assessed as reduction in bacterial growth
Escherichia coli [44] = test: Bactericidal activity against ESBLs positive Carbapenem-sensitive Escherichia coli 17-10 assessed as reduction in bacterial growth; assay type: functional
Pseudomonas aeruginosa [45] = test: Antibacterial activity against Carbapenem- resistant Pseudomonas aeruginosa 17-1 assessed as reduction in bacterial growth

SMILES: Nc1nc(/C(=N/OCc2cc(=O)c(O)cn2O)C(=O)N[C@@H]2C(=O)N3C(C(=O)O)=CCS[C@H]23)cs1
- Ratio (Enterobacter cloacae [1]): 4
- Ratio (Enterobacter cloacae [2]): 1
- MBC (Klebsiella aerogenes [3]): 1 µg/mL
- MIC (Pseudomonas aeruginosa [4]): 1 µg/mL
- Ratio (Escherichia coli [5]): 4
- Ratio (Klebsiella pneumoniae [6]): 1
- MBC (Klebsiella pneumoniae [7]): 16 µg/mL
- MIC (Pseudomonas aeruginosa [8]): 0.25 µg/mL
- Ratio (Klebsiella aerogenes [9]): 1
- MIC (Klebsiella pneumoniae [10]): 0.06 µg/mL
- MBC (Enterobacter cloacae [11]): 1 µg/mL
- MIC (Escherichia coli [12]): 0.25 µg/mL
- MIC (Escherichia coli [13]): 0.5 µg/mL
- MIC (Escherichia coli [14]): 4 µg/mL
- MIC (Acinetobacter baumannii [15]): > 64 µg/mL
- MBC (Acinetobacter baumannii [16]): > 64 µg/mL
- Ratio (Pseudomonas aeruginosa [17]): 4
- Ratio (Escherichia coli [18]): 8
- MIC (Acinetobacter baumannii [19]): 16 µg/mL
- MBC (Klebsiella aerogenes [20]): 16 µg/mL (≈ 31.5 µM)
- MIC (Acinetobacter baumannii [21]): 16 µg/mL
- Ratio (Klebsiella aerogenes [22]): 1
- Ratio (Klebsiella pneumoniae [23]): 1
- Ratio (Pseudomonas aeruginosa [24]): 4
- MBC (Klebsiella pneumoniae [25]): 0.125 µg/mL
- Ratio (Enterobacter cloacae [26]): 1
- MBC (Pseudomonas aeruginosa [27]): 32 µg/mL
- Ratio (Acinetobacter baumannii [28]): >8
- MIC (Klebsiella pneumoniae [29]): 2 µg/mL
- Ratio (Klebsiella pneumoniae [30]): 1
- Ratio (Pseudomonas aeruginosa [31]): 4
- MIC (Klebsiella pneumoniae [32]): 2 µg/mL
- MIC (Klebsiella aerogenes [33]): 0.5 µg/mL
- Ratio (Escherichia coli [34]): 1
- MBC (Acinetobacter baumannii [35]): 16 µg/mL
- MIC (Klebsiella aerogenes [36]): 2 µg/mL
- Ratio (Pseudomonas aeruginosa [37]): 1
- MIC (Escherichia coli [38]): 0.5 µg/mL
- MIC (Escherichia coli [39]): 0.5 µg/mL (≈ 0.983 µM)
- Ratio (Klebsiella pneumoniae [40]): 8
- MIC (Enterobacter cloacae [41]): 2 µg/mL (≈ 3.93 µM)
- MIC (Klebsiella pneumoniae [42]): 0.125 µg/mL
- MIC (Acinetobacter baumannii [43]): > 64 µg/mL

SMILES: CC(C)(O/N=C(\C(=O)N[C@@H]1C(=O)N2C(C(=O)[O-])=C(C[n+]3ccccc3)CS[C@H]12)c1csc(N)n1)C(=O)O [CEFTAZIDIME]
- MBC (Klebsiella aerogenes [3]): 0.25 µg/mL
- MIC (Pseudomonas aeruginosa [4]): 0.5 µg/mL
- MBC (Klebsiella pneumoniae [7]): 4 µg/mL
- MIC (Pseudomonas aeruginosa [8]): 0.125 µg/mL
- MBC (Enterobacter cloacae [11]): 1 µg/mL
- MIC (Escherichia coli [13]): 1 µg/mL
- MIC (Escherichia coli [14]): 0.5 µg/mL
- MIC (Acinetobacter baumannii [15]): > 64 µg/mL
- MBC (Acinetobacter baumannii [16]): > 64 µg/mL
- MIC (Acinetobacter baumannii [19]): 4 µg/mL
- MIC (Acinetobacter baumannii [21]): 8 µg/mL
- MBC (Klebsiella pneumoniae [25]): 1 µg/mL
- MBC (Pseudomonas aeruginosa [27]): > 16 µg/mL
- MIC (Klebsiella pneumoniae [29]): 4 µg/mL
- MIC (Klebsiella pneumoniae [32]): 4 µg/mL
- MBC (Acinetobacter baumannii [35]): 16 µg/mL
- MIC (Klebsiella aerogenes [36]): 0.5 µg/mL
- MIC (Escherichia coli [39]): 0.06 µg/mL (≈ 0.11 µM)
- MBC (Escherichia coli [44]): 16 µg/mL (≈ 29.3 µM)
- MIC (Pseudomonas aeruginosa [45]): 32 µg/mL (≈ 58.5 µM)
- MIC (Klebsiella pneumoniae [42]): 1 µg/mL
- MIC (Acinetobacter baumannii [43]): > 64 µg/mL

SMILES: C[C@@H](O)[C@H]1C(=O)N2C(C(=O)O)=C(S[C@@H]3CN[C@H](C(=O)N(C)C)C3)[C@H](C)[C@H]12 [MEROPENEM]
- MIC (Enterobacter cloacae [41]): < 0.03 µg/mL
